Test results: patent US20080139534A1, “Bisbenzamidines and bisbenzamidoximes for the treatment of human African trypanosomiasis” (XAVIER UNIVERSITY OF LOUISIANA, priority 2006, published 2008)
Where two headings read alike, the source gives them in different places. Marks after values point to notes of the source that are not given here.

Experiments:
[1] = tested on: T. b. rhodesiense KETRI 2002; test: In vivo efficacy in infected mice, clinical isolate; design: species or system Trypanosoma brucei rhodesiense
Description: (§1) Female Swiss-Webster mice (weight, 20 g) were infected (intraperitoneally) with 2.5×10^5 trypanosomes from rat blood, and the infection was allowed to develop for 24 h before drug treatment was begun. Groups of three mice each were injected (intraperitoneally) with each drug concentration. All of the experiments included a group of untreated controls. […] Animals were monitored weekly for parasites in tail vein blood smears. Mice were considered cured if they survived more than 30 days after the death of the last control with no parasites in tail vein blood smears. MSD (mean survival in days) was also recorded for each group. It is the average time of survival of the animals in the group, exclusive of cured animals.
(§2) Mice were infected on day 1 with 2.5×10^5 trypanosomes and the infections allowed to progress 24 h. prior to dosing. Animals were dosed 1×/day i.p for 3 days. Cured animals survived >30 days beyond the death of untreated, infected controls. MSD=mean survival in days exclusive of cured animals. Dose as mg/kg/day.

[2] = tested on: T. b. brucei Lab 110 EATRO; test: In vitro trypanocidal activity, bloodforms in HMI-18 medium, Coulter counts; format: cell-based, Trypanosoma brucei brucei; conditions: 48 h exposure, bloodforms, read-out: Lab 100 EATRO IC50
Description: (§3) The compounds were tested against trypanosome isolates grown as blood forms in HMI-18 medium containing 20% horse serum in 24 well microplates at 37° C. in 5% CO2. Wells were inoculated with 1×10^5 trypanosomes. […] One-half the volume was replaced daily. Cell counts were made daily with a Coulter Counter, Model Z1 (Beckman Coulter, Miami, Fla., USA). Cells were diluted with Isoton I buffer (Beckman Coulter) and the aperture was standardized at 5.14 μm. Background checks were performed daily on 1:10 dilutions of medium. Counts, normalization, and coincident counts were accounted for by the standardized Coulter analysis program. Occasionally, hemocytometer counts were performed as a check on the validity of the Coulter program. IC50 values were determined after 48 h from semi-log plots and the values are the result of duplicate determinations. Initially a broad concentration curve was used and then a close concentration curve from which IC50 values were determined. Assays were done in duplicate and each point was the average of the two. Control cells grew to 5×10^6/ml.
(§4) Coulter counts were made daily and IC50 values determined after 48 hours exposure.

[3] = tested on: T. b. brucei Lab 110 EATRO; test: In vivo efficacy in infected mice; design: species or system Trypanosoma brucei brucei
Description: Female Swiss-Webster mice (weight, 20 g) were infected (intraperitoneally) with 2.5×10^5 trypanosomes from rat blood, and the infection was allowed to develop for 24 h before drug treatment was begun. Groups of three mice each were injected (intraperitoneally) with each drug concentration. All of the experiments included a group of untreated controls. […] Parasitemia of animals dying of infection averaged 0.5-1.0×10^9/mL of blood. These infections are very predictable and daily counts were not done because of the labor involved. […] Animals were monitored weekly for parasites in tail vein blood smears. Mice were considered cured if they survived more than 30 days after the death of the last control with no parasites in tail vein blood smears. MSD (mean survival in days) was also recorded for each group. It is the average time of survival of the animals in the group, exclusive of cured animals.
Mice were infected with 250,000 parasites and dosing commenced 24 h. post infection. Mice were separated into groups of three and given single i.p doses for 3 days unless otherwise noted. Infected untreated controls were used for each experiment. Mice were considered cured if surviving more than 30 days beyond death of controls without parasites in tail vein blood smears. MSD, mean survival in days, exclusive of cured animals.

[4] = tested on: T. b. rhodesiense KETRI 243; test: In vitro trypanocidal activity, bloodforms in HMI-18 medium, Coulter counts; format: cell-based, Trypanosoma brucei rhodesiense; conditions: 48 h exposure
Description: as §3, §4

[5] = tested on: T. b. rhodesiense KETRI 1992; test: In vivo efficacy in infected mice, clinical isolate; design: species or system Trypanosoma brucei rhodesiense
Description: as §1, §2

calf thymus DNA = test: Thermal denaturation study, DNA binding affinity (ΔTm); conditions: 1:5 compound to base pair ratio;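 also: shift in midpoint melting temperature of calf thymus DNA thermal denaturation curves caused by compound binding, values averaged over at least two determinations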
Description: (§5) The binding affinity was measured by determining the change in the midpoint (Tm) of the thermal denaturation curves of calf thymus DNA as well as poly(dA-dT) at a 1:5 compound to base pair ratio.

poly(dA-dT) = test: as above; conditions: 1:5 compound to base pair ratio;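 also: shift in the midpoint temperature of the thermal melting curve of poly(dA-dT), each value the mean of two or more independent determinations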
Description: as §5

[6] = KETRI 2002, 1 mg/kg/day i.p. for 3 days
[7] = mice, 1 mg/kg/day i.p. for 3 days
[8] = mice, 5 mg/kg/day i.p. for 3 days
[9] = mice, 10 mg/kg/day i.p. for 3 days
[10] = KETRI 1992, 1 mg/kg/day i.p. for 3 days
[11] = KETRI 1992, 5 mg/kg/day i.p. for 3 days
[12] = KETRI 1992, 10 mg/kg/day i.p. for 3 days
[13] = KETRI 1992, 25 mg/kg/day i.p. for 3 days
[14] = mice, 1, 2.5, 5, 10, 15, 25 mg/kg/day i.p. for 3 days (all doses failed to cure)
[15] = mice, 1, 2.5, 5, 10, 15, 25 mg/kg/day i.p. for 3 days (all doses)
[16] = Trypanosoma brucei, RHODESIENSE

Structure (SMILES)	IC50 [2]	IC50 [4]	DNA Binding Δ Tm Calf thymus (calf thymus DNA)	DNA Binding Δ Tm Poly (dA-dT) (poly(dA-dT))	further results
N=C(N)c1ccc(NC(=O)CCCCCCCCC(=O)Nc2ccc(C(=N)N)cc2)cc1 [compound 0709]	2 nM	4.1 nM	–	–	#Cured/Total [1, 6]: 0/3; MSD [1, 6]: 18 days; MSD ([1]; KETRI 2002, 5 mg/kg/day i.p. for 3 days): 33 days; MSD ([1]; KETRI 2002, 10 mg/kg/day i.p. for 3 days): >30 days; MSD ([1]; KETRI 2002, 15 mg/kg/day i.p. for 3 days): >30 days; MSD ([1]; KETRI 2002, 25 mg/kg/day i.p. for 3 days): >30 days; MSD [3, 7]: 12 days; MSD [3, 8]: >30 days; MSD [3, 9]: >30 days; MSD ([3]; mice, 25 mg/kg/day i.p. for 3 days): >30 days; #Cured/Total [5, 10]: 0/3; MSD [5, 10]: 12.6 days; #Cured/Total [5, 11]: 0/3; MSD [5, 11]: 13.7 days; #Cured/Total [5, 12]: 0/3; MSD [5, 12]: 15.7 days; #Cured/Total [5, 13]: 0/3; MSD [5, 13]: 26.6 days
CCNC(=N)c1ccc(N2CCN(c3ccc(C(=N)NCC)cc3)CC2)cc1.Cl.Cl [compound 0140]	13 nM	33 nM	15.3 °C	18.6 °C	# Cured/#Treated (%) [3, 7]: 0/3; MSD [3, 7]: 5 days; MSD [3, 8]: 18 days; MSD [3, 9]: 17 days
CCCCCCNC(=N)c1ccc(N2CCN(c3ccc(C(=N)NCCCCCC)cc3)CC2)cc1.Cl.Cl [compound 0128]	13 nM	23.9 nM	10.7 °C	10.1 °C	# Cured/#Treated (%) [3, 14]: 0/3^a; MSD [3, 15]: 5.3 to 10.6 days
CCOC(=O)c1ccc(N2CCN(c3ccc(C(=O)OCC)cc3)CC2)cc1 [compound 0118]	340 nM	350 nM	0.6 °C	0.0 °C	–
N=C(N)c1ccc(COc2ccccc2OCc2ccc(C(=N)N)cc2)cc1 [compound 0519]	1.3 nM	2.1 nM	0.1 °C	−0.1 °C	# Cured/#Treated (%) [3, 14]: 0/3^a; MSD [3, 15]: 5 days
O=[N+]([O-])c1ccc(N2CCN(c3ccc([N+](=O)[O-])cc3)CC2)cc1 [compound 0119]	137 nM	250 nM	0.1 °C	0.0 °C	–
CCCCCCCCCNC(=N)c1ccc(N2CCN(c3ccc(C(=N)NCCCCCCCCC)cc3)CC2)cc1.Cl.Cl [compound 0132]	100 nM	210 nM	1.3 °C	2.7 °C	–
Cl.Cl.N=C(NC1CCCCCC1)c1ccc(N2CCN(c3ccc(C(=N)NC4CCCCCC4)cc3)CC2)cc1 [compound 0129]	18 nM	22 nM	15.6 °C	18.7 °C	# Cured/#Treated (%) [3, 7]: 0/3; MSD [3, 7]: 7.5 days; MSD [3, 8]: 9 days; MSD ([3]; mice, 7.5 mg/kg/day i.p. for 3 days): >30 days; MSD [3, 9]: >30 days; MSD ([3]; mice, 15 mg/kg/day i.p. for 3 days): >30 days
CCCCCCCNC(=N)c1ccc(N2CCN(c3ccc(C(=N)NCCCCCCC)cc3)CC2)cc1.Cl.Cl [compound 0133]	100 nM	57 nM	8.7 °C	8.5 °C	–
CC(=O)c1ccc(N2CCN(c3ccc(C(C)=O)cc3)CC2)cc1 [compound 0123]	2350 nM	1550 nM	0.1 °C	0.0 °C	–
c1cc(N2CCN(c3ccc(C4OCCO4)cc3)CC2)ccc1C1OCCO1 [compound 0111]	5800 nM	2300 nM	−1.2 °C	0.1 °C	–
c1ccc2[nH]c(-c3ccc(N4CCN(c5ccc(-c6nc7ccccc7[nH]6)cc5)CC4)cc3)nc2c1 [compound 0115, 1,4-bis[4-(1H-benzymidazol-2-yl)phenyl]piperazine]	–	–	0.1 °C	2.0 °C	IC50 ([2]; Trypanosoma brucei): 1150 nM; IC50 [4, 16]: 5800 nM
CN=C(N)c1ccc(N2CCN(c3ccc(C(N)=NC)cc3)CC2)cc1 [compound 0112, N,N′-Dimethyl 4,4′-(1,4-piperazinediyl)bisbenzenecarboxidamide]	205 nM	33 nM	15.2 °C	22.2 °C	–
CCCNC(=N)c1ccc(N2CCN(c3ccc(C(=N)NCCC)cc3)CC2)cc1.Cl.Cl [63N, N,N′-Dipropyl 4,4′-(1,4-piperazinediyl)bisbenzenecarboxidamide]	–	–	17.0 °C	26.0 °C	IC50 ([2]; Trypanosoma brucei): 35 nM; IC50 [4, 16]: 32.5 nM
CCCCCCCCCCCCNC(=N)c1ccc(N2CCN(c3ccc(C(=N)NCCCCCCCCCCCC)cc3)CC2)cc1.Cl.Cl [compound 0136]	660 nM	125 nM	0.6 °C	0.0 °C	–
O=C(Nc1ccc(C2=NCCN2)cc1)C1CC1C(=O)Nc1ccc(C2=NCCN2)cc1 (stereo not drawn) [8IM]	> 1000 nM	440 nM	6.0 °C	9.6 °C	–
C(=NNc1ccccc1)c1ccc(N2CCN(c3ccc(C=NNc4ccccc4)cc3)CC2)cc1 [compound 0116]	1740 nM	1870 nM	−0.2 °C	0.0 °C	–
CC(C)CCNC(=N)c1ccc(N2CCN(c3ccc(C(=N)NCCC(C)C)cc3)CC2)cc1.Cl.Cl [compound 0135]	72 nM	61 nM	15.3 °C	21.8 °C	–
Cl.Cl.c1cc(N2CCN(c3ccc(C4=NCCN4)cc3)CC2)ccc1C1=NCCN1 [compound 0126]	16 nM	6.5 nM	15.0 °C	19.4 °C	–
C(=C1CCCN(c2ccc(C3=NCCN3)cc2)C1)c1ccc(C2=NCCN2)cc1.Cl.Cl (mixture of isomers) [3SF]	71 nM	84 nM	12.0 °C	15.0 °C	–
c1ccc(N2CCN(c3ccccc3)C2c2ccc(N3CCN(c4ccc(C5N(c6ccccc6)CCN5c5ccccc5)cc4)CC3)cc2)cc1 [compound 0109]	120 nM	335 nM	−1.2 °C	0.0 °C	–
N=C(N)c1ccc(OCc2ccccc2COc2ccc(C(=N)N)cc2)cc1 [compound 0513]	1.25 nM	2.55 nM	−0.2 °C	−0.1 °C	# Cured/#Treated (%) [3, 14]: 0/3^a; MSD [3, 15]: 5 days
N=C(N)c1ccc(OCc2ccc(COc3ccc(C(=N)N)cc3)cc2)cc1 [compound 0508]	0.295 nM	0.665 nM	12.5 °C	18.0 °C	# Cured/#Treated (%) [3, 14]: 0/3^a; MSD [3, 15]: 5 to 17.3 days
